Data published in the supplement of paper PMC10307832.

What was measured:
Assay in all cases: relative viability (nuclei count vs DMSO), 5 days (fraction); higher = more cells survive
AGI-6780 + Navitoclax = compound: O=C(Nc1cccc(C(F)(F)F)c1)Nc1cc(S(=O)(=O)NC2CC2)ccc1-c1ccsc1 [AGI-6780] + CC1(C)CCC(c2ccc(Cl)cc2)=C(CN2CCN(c3ccc(C(=O)NS(=O)(=O)c4ccc(N[C@H](CCN5CCOCC5)CSc5ccccc5)c(S(=O)(=O)C(F)(F)F)c4)cc3)CC2)C1 [Navitoclax] (partner 0.5 µM)
Outline: (§1)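 Each reported value is a median over duplicate plates. It expresses relative viability: treated-well nuclei count divided by vehicle-well nuclei count. Lung cancer cell lines in 1536-well plates were dosed by pin tool a day after seeding, alone with one drug or with a fixed anchor-drug dose plus five library-drug doses (not always all listed) in √10 steps, and nuclei were counted after 5 days.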

AGI-6780 + Crizotinib = compound: O=C(Nc1cccc(C(F)(F)F)c1)Nc1cc(S(=O)(=O)NC2CC2)ccc1-c1ccsc1 [AGI-6780] + C[C@@H](Oc1cc(-c2cnn(C3CCNCC3)c2)cnc1N)c1c(Cl)ccc(F)c1Cl [Crizotinib] (partner 1 µM)
Outline: as §1

AGI-6780 + Phenformin = compound: O=C(Nc1cccc(C(F)(F)F)c1)Nc1cc(S(=O)(=O)NC2CC2)ccc1-c1ccsc1 [AGI-6780] + N=C(N)NC(=N)NCCc1ccccc1 [Phenformin] (partner 250 µM)
Outline: as §1

AGI-6780 + Decitabine = compound: O=C(Nc1cccc(C(F)(F)F)c1)Nc1cc(S(=O)(=O)NC2CC2)ccc1-c1ccsc1 [AGI-6780] + Nc1ncn([C@H]2C[C@H](O)[C@@H](CO)O2)c(=O)n1 [Decitabine] (partner 2 µM)
Outline: as §1

Cell Line	relative viability (AGI-6780 + Navitoclax; first compound 0.08 µM)	relative viability (AGI-6780 + Navitoclax; first compound 0.253 µM)	relative viability (AGI-6780 + Navitoclax; first compound 0.8 µM)	relative viability (AGI-6780 + Navitoclax; first compound 8 µM)	relative viability (AGI-6780 + Crizotinib; first compound 0.08 µM)	relative viability (AGI-6780 + Crizotinib; first compound 0.253 µM)	relative viability (AGI-6780 + Crizotinib; first compound 0.8 µM)	relative viability (AGI-6780 + Crizotinib; first compound 8 µM)	relative viability (AGI-6780 + Phenformin; first compound 0.08 µM)	relative viability (AGI-6780 + Phenformin; first compound 0.253 µM)	relative viability (AGI-6780 + Phenformin; first compound 0.8 µM)	relative viability (AGI-6780 + Phenformin; first compound 2.53 µM)	relative viability (AGI-6780 + Phenformin; first compound 8 µM)	relative viability (AGI-6780 + Decitabine; first compound 0.08 µM)	relative viability (AGI-6780 + Decitabine; first compound 0.253 µM)	relative viability (AGI-6780 + Decitabine; first compound 0.8 µM)	relative viability (AGI-6780 + Decitabine; first compound 2.53 µM)	relative viability (AGI-6780 + Decitabine; first compound 8 µM)	relative viability (AGI-6780 + Navitoclax; first compound 2.53 µM)	relative viability (AGI-6780 + Crizotinib; first compound 2.53 µM)
NCI-H1734	0.889	0.814	0.778	0.861	0.753	0.648	0.757	0.752	0.395	0.427	0.45	0.305	0.377	0.506	0.566	0.528	0.372	0.48		
NCI-H1755	1.04	1.01	0.977	0.894	0.878	0.818	1	0.886	0.637	0.683	0.611	0.576	0.633	0.718	0.758	0.691	0.604	0.689	0.961	0.79
NCI-H1792	0.377	0.613	0.834	0.625	0.836	0.993	1.07	0.989	0.159	0.279	0.195	0.241	0.345	0.665	0.437	0.536		0.49	0.629	0.931
NCI-H1915	0.818	0.781	0.746	0.738	0.885	0.88	0.902	0.835	0.37	0.371	0.369	0.374	0.376	0.276	0.267	0.283	0.255	0.26	0.808	0.857
NCI-H1944	1.07	1.09	1.01	1.02	1.16	1.12	1.25	1.02	0.212	0.215	0.213		0.217	0.448	0.445	0.399		0.425	0.792	0.926
NCI-H1975	1.15	1	1.1	1.03	1.07	1.05	0.965	0.876	0.437	0.427	0.41		0.395	0.38	0.427	0.38	0.377	0.382	1.02	1.02
NCI-H1993	1.1	0.986	0.903	1.14	0.899	0.913	0.931	1	0.419	0.51	0.495	0.499	0.54	0.593	0.57	0.595		0.688	0.667	0.84
NCI-H2009	1.2	1.12	1.19	1.16	1.02	1.09	0.976	1.05	0.432	0.426	0.496	0.518	0.47	0.396	0.365	0.428	0.322	0.382	1.16	1.01
NCI-H2023	1	1.06	1.02	0.919	0.637	0.541	0.856	0.731	0.395	0.39	0.413	0.403	0.389	0.208	0.238	0.256	0.233	0.239	0.989	0.554
NCI-H2085	1.15	1.07	1.1	1.2	0.817	1.01	0.926	0.927	0.728	0.836	0.736	0.716	0.707	0.574	0.534	0.523	0.474	0.537	1.08	0.933
NCI-H2087	1.08	0.986	0.98	0.97	0.869	0.922	0.851	0.919	0.5	0.502	0.471	0.438	0.492	0.329	0.272	0.326	0.243	0.235	0.982	0.86
NCI-H2126	0.926	0.898	0.839	0.84	1.1	1.01	1.03	1.05	0.543	0.568	0.539	0.526	0.539	0.577	0.615	0.562	0.501	0.582	0.738	1.02
NCI-H2170	0.595	0.54	0.674	0.564	1.28	1.14	1.36	1.24	0.413	0.459	0.631	0.422	0.403	0.469	0.495	0.477		0.459		
NCI-H2347	0.7	0.839	0.552	0.841	0.733	0.738	0.59	0.801	0.424	0.574	0.378	0.351	0.373	0.706	0.62	0.553	0.643	0.65	0.605	0.663
NCI-H2405	0.8	0.9	0.725	0.836	0.839	0.801	0.583	0.829	0.431	0.381	0.279	0.339	0.382		0.781	0.662	0.626	0.66		0.827
NCI-H3122	1.03	1.03	1.02	0.977	0.252	0.291	0.301	0.293	0.326	0.378	0.421	0.399	0.36	0.447	0.411	0.42	0.331	0.498	1.07	0.252
PC-3 [JPC-3]	0.898	0.872	0.77	0.774	1.01	0.928	0.971	0.977	0.51	0.483	0.479	0.502	0.496		0.797	0.868	0.802	0.775	0.752	0.994
